Results as given in patent US20240415152A1, “METHODS FOR IMPROVING HEALTH OF FISH, USE OF ZINC OXIDE PARTICLES FOR THE PREPARATION OF FISH FEED, METHODS FOR PREPARING FISH FEED FOR FISH, AND FISH FEED THEREOF” (City University of Hong Kong, priority 2023, published 2024).

Key:
Assay type in all cases: in vivo, Trachinotus ovatus
Settings in all cases: dietary 60 mg/kg, 5 weeks
[1] = system: intestinal tissue of fish; assay: In situ spatial quantitative analysis of intestinal tissue (HE sections, tissue cytometry)
Protocol: After dietary exposure, all fish were starved for 24 h, and the ice-water was used to anesthetize fish from different groups. To avoid sample contamination during sampling, we first thoroughly disinfected the sampling table with 75% alcohol, and then spread a disposable tablecloth and disinfected it twice. All metal dissection tools were high-temperature sterilization. Each treatment group shared one set of dissection tools. After each set of samples, the disposable tablecloth was replaced and thoroughly sterilized for the following group sampling. The tubes (sterile and enzyme-free) for the temporary storage of samples were purchased from Corning. Inc. The alcohol lamp was kept on throughout the sampling process. Fish's weights were measured immediately. All individual fish per net were swabbed using 75% alcohol. After that, we used a 1 mL disposable syringe to collect the blood from the caudal vertebra of the fish. The blood was quickly drawn into the pre-cooled 1.5 mL-centrifuge tubes (RNA-free tube). Then, all the blood samples were put in the 4° C. refrigerator for 24 h, and then centrifuged (4° C., 3000 r/min, 10 min) to obtain the serum samples for biochemical analysis. The blood-drawn fish were quickly dissected to obtain the gill, intestine content, intestine, liver, and muscle. Each replicated sample contained 6 fish, resulting in 18 fish per treatment group (with 3 replicates). All these samples were immediately frozen in liquid nitrogen and transferred to −80° C. refrigerator using dry ice, except the intestine for histomorphological study. For histomorphological analysis of the intestine, the tissues (3 fish per treatment group) were firstly dissected in the medical ice sheet. After 0.9% NaCl solution quick washing, the intestine tissues were fixed in the 4% paraformaldehyde (BL539A, Biosharp) for 48 h. The fixed intestinal samples were carefully transferred to 75% alcohol for long-term preservation.
The fixed intestine tissues were removed from the fixed liquid and then carefully trimmed with the ventilation cupboard. The trimmed tissues with different labels were placed in the dehydration box in the dehydrator (Donatello, DIAPATH) to dehydrate with gradient alcohol. The process was as follows: 75% alcohol 4 h, 85% alcohol 2 h, 90% alcohol 2 h, 95% alcohol 1 h, anhydrous ethanol I 30 min, anhydrous ethanol II 30 min, alcohol benzene 5˜10 min, xylene II 5˜10 min, 65° C. melting paraffin I1 h, 65° C. melting paraffin II 1 h, 65° C. melting paraffin Ill 1 h. The tissues were removed from the dehydration box and placed in the embedding frame of the embedding machine (JB-P5, Wuhan Junjie Electronics Co., Ltd), subsequently the frozen platform at −20° C. was used to cool the dewatering box. The solidified wax block was removed from the embedded frame and placed on the pathology slicer (RM2016, Shanghai Leica Instrument Co., Ltd) to obtain 4 μm slice thickness. The tissues were then flattened when the slice floated on the 40° C. warm water of the spreading machine. […]
In situ spatial quantitative identification of HE sections were imaged and analyzed by tissue cytometry. Briefly, the images were obtained on the TissueFAXS quantitative imaging system (TissueGnostics, Vienna, Austria). […] The scanned files were imported into the strataquest professional organization single-cell quantitative analysis system (v.7.0.1.176) for image processing and analysis. […]

[2] = system: intestinal microorganism of golden pompano; assay: Bacterial 16S ribosomal RNA gene sequencing of intestine content (ASV-based)
Text: DNA samples from the intestine content (only mucosa without the muscularis) were isolated using the MP Fast® SPIN DNA Kit. Each replicated sample contained 6 fish, resulting in 18 fish per treatment group. DNA extracts were amplified using primers (338F_806R) for the V3-V4 region of the 16S rRNA gene. Procedures for the DNA extracts and PCR amplification and then illuminma Miseq sequencing are described as follows.
DNA extraction and PCR amplification: The quality of DNA extraction was determined using 1% agarose gel electrophoresis, and DNA concentration and purity were determined using NanoDrop2000. […] The 16S rRNA gene V3-V4 variable region was amplified by PCR using 338F (5′-[…]-3′) and 806R (5′-[…]-3′). The amplification procedure was as follows: 95° C. pre-denaturation for 3 min, 27 cycles (95° C. denaturation for 30 s, 55° C. annealing for 30 s, 72° C. extension for 30 s), followed by 72° C. stable extension for 10 min and finally storage at 4° C. (PCR instrument: ABI GeneAmp® Model 9700). FastPfu buffer 4 μL, 2.5 mM dNTPs 2 μL, upstream primer (5 uM) 0.8 μL, downstream primer (5 uM) 0.8 μL, TransStart FastPfu DNA polymerase 0.4 μL, template DNA 10 ng, ddH2O make up to 20 μL. 3 replicates for each sample.
Illumina Miseq sequencing: PCR products from the same sample were mixed and recovered using a 2% agarose gel. Fluorometer (Promega, USA) was used to quantify the recovered products. Library construction was performed using NEXTflex™ Rapid DNA-Seq Kit (Bioo Scientific, USA): (1) splice linkage; (2) removal of splice self-linked fragments using magnetic bead screening; (3) enrichment of library template using PCR amplification; (4) recovery of PCR products by magnetic beads to obtain the final library. Sequencing was performed using Illumina's Miseq PE300 platform (Shanghai Meiji Biomedical Technology Co., Ltd.).
For Illumina Miseq PE300, products were pooled by sequencing equimolar and paired-end sequences (2×300) to obtain the raw data. Please see description for raw data stitching and optimization. After the PE reads obtained by MiSeq sequencing were split, the double-ended reads were first quality controlled and filtered according to the sequencing quality. Meanwhile, according to the overlapping relationship between double-ended reads, the optimized data after quality control splicing were obtained. […]
Raw data stitching and optimization: Fastp (version 0.20.0) software was used for quality control of the original sequencing sequence, and flash was used (version 1.2.7) software for splicing: (1) filter the bases with a mass value of less than 20 at the tail of reads and set a 50 bp window. […]

[3] = system: golden pompano; assay: Growth performance (final weight, weight gain rate) after 5-week dietary exposure
Protocol: Fish exposure experiments were conducted in strict accordance with the Chinese Guidelines for Ethical Review of Laboratory Animal Welfare (GBIT 35892-2018). Three groups of golden pompanos (initial body wet weight of about 6 g) were randomly chosen and split after 14 days of acclimatization. There were three replicated net cages in Mirs Bay (Nanao, Shenzhen, China) for each group, with 30 fish in each duplicate. Each day, the experimental meals were given two-time (8:00 h, and 16:00 h) to golden pompano until satiation during the 5-week exposure experiment. The water was 29-32° C., dissolved oxygen 6.8-7.2 mg/L, and salinity 28-30‰ during dietary exposure.
After dietary exposure, all fish were starved for 24 h, and the ice-water was used to anesthetize fish from different groups. To avoid sample contamination during sampling, we first thoroughly disinfected the sampling table with 75% alcohol, and then spread a disposable tablecloth and disinfected it twice. All metal dissection tools were high-temperature sterilization. Each treatment group shared one set of dissection tools. After each set of samples, the disposable tablecloth was replaced and thoroughly sterilized for the following group sampling. The tubes (sterile and enzyme-free) for the temporary storage of samples were purchased from Corning. […] Fish's weights were measured immediately. […]

## O=S(=O)([O-])[O-].[Zn+2] [ZnSO4, zinc sulphate]
[1]
  intestinal villus area: reduced
  villus height distribution (changes in the fish villi intestine): 0.05-0.33 μm
[1]; compared with the other groups
  area of basal layer of fish intestine: reduced
  total number of goblet cells: reduced
  villus/crypt ratio (intestinal/crypt ratio): reduced
[2]
  genus-level differential microorganisms in fish intestine: significantly enriched Photobacterium and Mycoplasma
  main intestinal microorganisms at phylum level: Proteobacteria, Firmicutes and Cyanobacteria
  unique reads of microorganisms at ASV level (Venn diagram): 808
  unique reads of microorganisms at genus level (Venn diagram): 137
[3]
  WGR (weight gain rate): 268.78%
[3]; initial body wet weight about 6 g
  final weight: 22.30 g
